The results in this text go back to ChEMBL document CHEMBL5634187, “Identification of Selective Imidazopyridine CSF1R Inhibitors” (ACS Med Chem Lett, 2024).

Values after ≈ are worked out from the molar mass of the structure shown.

A short description of data set [1]: physchem. The settings on record: buffer, pH 7.4.
Description: Solubility of compound at pH 7.4
Data set [2] is described as follows: physchem. The settings on record: octanol/water.
Description: Lipophilicity, logD of the compound
A short description of data set [3]: in vitro. The settings on record: human, Caco-2.
Description: Permeability in human Caco-2 cells
A short description of data set [4]: in vitro. The settings on record: human, liver microsomes. A general note: Liver microsomes are a subcellular fraction often used to study metabolism.
Description: Intrinsic clearance in human liver microsomes
Data set [5] can be described thus: in vitro. The settings on record: rat, liver microsomes.
Description: Intrinsic clearance in rat liver microsomes
For data set [6], the target named is CYP450 (isoform not stated) (Homo sapiens, UniProt P04798+P05177+P05181+P08684+P10632+P10635+P11509+P11712+P13584+P20813+P20815+P20853+P24462+P24903+P33260+P33261+P51589+P78329+P98187+Q02928+Q08477+Q16678+Q16696+Q5TCH4+Q6VVX0+Q7Z449+Q8TAV3+Q96SQ9+Q9HB55). Briefly: in vitro.
Data set [7] concerns the target Cytochrome P450 3A4 (Homo sapiens, UniProt P08684). Briefly: Inhibition of CYP450 3A4 (unknown origin) using midazolam as substrate. It is filed as ADME.
Data set [8] can be described thus: in vivo. The settings on record: Sprague-Dawley, rat, iv, 1 mg/kg.
Data set [9] can be described thus: in vivo. The settings on record: Sprague-Dawley, rat, iv, 1 mg/kg. The source holds these as a separate data set.
Description: Half-life in Sprague-Dawley rat at 1 mg/kg, iv
Data set [10] is described as follows: in vivo. The settings on record: Sprague-Dawley, rat, iv, 1 mg/kg. This is another data set of the same source.
Description: Clearance in Sprague-Dawley rat at 1 mg/kg, iv
Data set [11] can be described thus: in vivo. The settings on record: Sprague-Dawley, rat, iv, 1 mg/kg. The source holds these as a separate data set.
Data set [12] can be described thus: in vivo. The settings on record: Sprague-Dawley, rat, po, 3 mg/kg.
Data set [13] is described as follows: in vivo. The settings on record: Sprague-Dawley, rat, po, 3 mg/kg. This is another data set of the same source.
A short description of data set [14]: in vivo. The settings on record: Sprague-Dawley, rat, po, 3 mg/kg. This is another data set of the same source.
Description: Half-life in Sprague-Dawley rat at 3 mg/kg, po
The nature of data set [15]: in vivo. The settings on record: Sprague-Dawley, rat, po, 3 mg/kg. The source holds these as a separate data set.
For data set [16], the target named is Mast/stem cell growth factor receptor Kit (Homo sapiens, UniProt P10721).
Sequence of Mast/stem cell growth factor receptor Kit (P10721 whole entry): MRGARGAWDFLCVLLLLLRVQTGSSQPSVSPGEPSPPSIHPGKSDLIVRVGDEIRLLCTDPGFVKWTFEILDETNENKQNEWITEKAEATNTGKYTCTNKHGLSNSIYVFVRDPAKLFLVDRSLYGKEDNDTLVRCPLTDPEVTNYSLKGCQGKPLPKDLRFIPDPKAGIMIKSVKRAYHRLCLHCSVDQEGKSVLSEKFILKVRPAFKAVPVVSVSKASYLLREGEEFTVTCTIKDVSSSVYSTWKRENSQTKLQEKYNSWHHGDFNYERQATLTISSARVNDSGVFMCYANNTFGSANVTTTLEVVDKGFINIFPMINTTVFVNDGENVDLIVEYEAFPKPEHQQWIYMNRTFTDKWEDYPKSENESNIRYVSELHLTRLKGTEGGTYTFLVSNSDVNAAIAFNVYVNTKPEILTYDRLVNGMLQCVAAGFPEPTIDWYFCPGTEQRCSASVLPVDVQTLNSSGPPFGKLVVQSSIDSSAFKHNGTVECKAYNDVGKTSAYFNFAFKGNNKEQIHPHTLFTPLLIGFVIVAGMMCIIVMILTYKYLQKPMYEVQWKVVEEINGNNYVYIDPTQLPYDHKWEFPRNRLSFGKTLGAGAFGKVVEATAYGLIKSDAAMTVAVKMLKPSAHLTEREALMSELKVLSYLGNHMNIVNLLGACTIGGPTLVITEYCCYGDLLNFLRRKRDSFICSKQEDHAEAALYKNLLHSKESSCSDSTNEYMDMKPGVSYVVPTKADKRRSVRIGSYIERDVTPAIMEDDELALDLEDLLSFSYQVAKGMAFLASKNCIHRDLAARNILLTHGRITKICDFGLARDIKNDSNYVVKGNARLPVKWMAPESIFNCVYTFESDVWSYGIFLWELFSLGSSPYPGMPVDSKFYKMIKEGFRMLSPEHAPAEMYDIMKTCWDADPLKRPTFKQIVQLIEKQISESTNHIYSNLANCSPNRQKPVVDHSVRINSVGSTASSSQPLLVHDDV
Description: Inhibition of c-Kit (unknown origin)

Sequence of Cytochrome P450 3A4 (P08684 whole entry): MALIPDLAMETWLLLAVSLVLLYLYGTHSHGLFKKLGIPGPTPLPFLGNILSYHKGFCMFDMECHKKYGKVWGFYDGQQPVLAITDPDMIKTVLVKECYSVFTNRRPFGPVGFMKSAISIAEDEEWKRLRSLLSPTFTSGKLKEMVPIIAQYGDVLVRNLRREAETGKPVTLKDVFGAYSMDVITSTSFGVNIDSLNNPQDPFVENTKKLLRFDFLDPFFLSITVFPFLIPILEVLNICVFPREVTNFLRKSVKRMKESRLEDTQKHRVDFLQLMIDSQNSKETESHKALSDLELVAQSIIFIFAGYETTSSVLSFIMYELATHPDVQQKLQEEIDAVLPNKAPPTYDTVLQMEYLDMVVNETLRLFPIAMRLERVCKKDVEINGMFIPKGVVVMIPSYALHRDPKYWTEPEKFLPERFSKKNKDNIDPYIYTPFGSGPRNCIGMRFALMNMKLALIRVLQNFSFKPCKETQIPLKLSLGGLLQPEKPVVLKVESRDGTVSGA

The term solubility denotes the concentration that dissolves in the medium under given conditions. A high value points to much dissolved substance. By logD is commonly meant lipophilicity at a set pH, counting ionised and neutral species. A high value points to higher lipophilicity. As usually defined, the Papp is a coefficient for how fast a substance crosses the barrier. Low values mean poor permeation, high ones ready permeation. For orientation: microsomal CLint means a measure of how fast metabolising enzymes remove a compound, apart from limits set by blood flow. By IC50 is commonly meant the concentration that inhibits the measured activity by half. Turning to `COc1ccc(COc2ccc(Cn3cnc4cc(N5CCN(C)CC5)cnc43)cc2OC)cn1`, the solubility in [1] was greater than 450 µg/mL. The logD in data set [2] is 2.3. This compound also showed a Papp in data set [3] of 29 ×10⁻⁶ cm/s. Moreover, the microsomal CLint worked out at 33 µL/min/mg in [4] and 130 µL/min/mg in data set [5]. Further, the IC50 in data set [6] is greater than 10 µM.

In turn, `COc1ccc(COc2ccc(Cn3cnc4cc(-n5cc(C(C)(C)N)nn5)cnc43)cc2OC)cn1` had a solubility in data set [1] of 13 µg/mL (≈ 26 µM). For the same compound, the logD in data set [2] came to 1.6. The same compound displayed a Papp in [3] of 2 ×10⁻⁶ cm/s. The microsomal CLint was 21 µL/min/mg in [4] and less than 7.2 µL/min/mg in [5]. In data set [6], this compound gave an IC50 greater than 10 µM.

With `COc1ccc(COc2ccc(Cn3cnc4cc(C(=O)N5CC6(COC6)C5)cnc43)cc2OC)cn1`, the IC50 in data set [6] is greater than 10 µM.

In data set [6], `COc1ccc(COc2ccc(Cn3cnc4cc(C(=O)N(C)C)cnc43)cc2OC)cn1` registered an IC50 greater than 10 µM.

In [6], `COc1ccc(COc2ccc(Cn3cnc4cc(OC5CCNCC5)cnc43)cc2OC)cn1` yielded an IC50 greater than 10 µM.

The term AUC(0-inf) denotes total exposure, with the tail of the curve extrapolated. A higher AUC(0-inf) goes with high exposure. For orientation: half-life means the time needed for the level to fall by half in the phase considered. The low end stands for rapid decline, the high end for slow decline. Broadly, the clearance is the volume of plasma or blood freed of the substance per unit of time. A high value points to efficient removal. For orientation: Vd means a proportionality between amount in the body and measured concentration, not a real space. Low values mean confinement near the circulation, high ones extensive tissue distribution. As a reminder, the Cmax is the peak of the concentration-time curve. As usually defined, the bioavailability is the share of a dose that reaches the circulation, judged against a reference dose that is usually intravenous. A low value points to poor availability. Regarding `COc1ccc(COc2ccc(Cn3cnc4cc(C#CC5CCNC5)cnc43)cc2OC)cn1` (centres undefined), 6.6 µM corresponded to half-maximal inhibition in data set [7] (IC50). Moreover, the AUC(0-inf) in [8] is 542 ng·h/mL; in [12] it was 625 ng·h/mL. In addition, the half-life in data set [9] was 2 h; in [14], 1.7 h. Further, the clearance in [10] was determined as 31 mL/min/kg. The compound further returned a Vd in data set [11] of 4.89 L/kg. Also, the Cmax in data set [13] came out at 108 ng/mL. Further, the bioavailability in data set [15] is 36%. For the same compound, the solubility in data set [1] was found to be 57 µg/mL (≈ 121 µM). This compound showed a logD in [2] of 1.5. Also, in data set [3], the Papp is 5.1 ×10⁻⁶ cm/s. For the same compound, the microsomal CLint in data set [4] was found to be 16 µL/min/mg; in data set [5], 19 µL/min/mg.

`COc1ccc(COc2ccc(Cc3cnc(N)nc3N)cc2OC)cc1` [GW632580X] returned a solubility in data set [1] of 1.2 µg/mL (≈ 3.27 µM). In data set [2], this compound showed a logD of 2.6. Further, in [3], the Papp is 11 ×10⁻⁶ cm/s. In data set [6], this compound showed an IC50 greater than 10 µM.

Consider `Cc1nc(-c2cnc(NC(C)C)n(C)c2=O)ccc1Oc1ccnc(-c2cnn(C)c2)c1` [VIMSELTINIB], for which the IC50 in data set [16] was 0.48 µM.
